# Assay results taken from patent publication US12263248B2, “Compounds and compositions for intracellular delivery of therapeutic agents” (ModernaTX, Inc., priority 2018, dated 2025).
# Marks after values point to notes of the source that are not given here.
# Legend:
# [1] = Apparent (surface) pKa of the LNP formulation (TNS assay); type: physicochemical
# Procedure, shortened: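 LNP (0.04 mg/mL mRNA) mixed with TNS reagent in 21 buffers spanning about pH 3-12, in triplicate; fluorescence plotted against pH as sigmoidal curve. Apparent pKa taken as […] curve inflection point; validated in 1× PBS and 20 mM Tris w/8% sucrose.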
# luciferase (Luc) mRNA = assay: Luc expression, whole body bioluminescence after intravenous administration to mice; type: in vivo; conditions: for Fold increase in total body Luc Flux relative to MC3 at 6 h: Table 3A; for Novel lipid/MC3 expression ratio, 6 hr. time point, i.v. / Novel lipid/MC3 ratio, 6 hr. timepoint, i.v.: luciferase; for Novel lipid/MC3 expression ratio, 6 hr. time point, i.v.: relative to MC3 formulation; for Total Flux 3 hours / Total Flux 6 hours / Total Flux 24 hours: Luc mRNA; for Novel lipid/MC3 ratio, 6 hr. timepoint, i.v.: relative to MC3, Table 3G; for Lipid/MC3 Luc expression: 0.5 mpk dose to mouse, 6 hours after administration; for Average total flux (6 h, ffluc) / Fold increase in average total flux relative to MC3: 6 h; for luciferase activity relative to MC3 LNP control: 0.5 mg/kg (mRNA dose)
# Procedure, shortened: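 Luc mRNA nanoparticle formulations given intravenously to mice (n=6) at 0.5 mg/kg; whole-body bioluminescence imaged at 3, 6 and 24 h. CD-1 mice received IP D-luciferin (200 μL of 15 mg/mL) 15 min before imaging; total flux quantified by region of interest.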
# hEPO mRNA [2] = assay: hEPO expression after intramuscular administration to mice; type: in vivo; conditions: for Lipid/MC3 6 h timepoint / Lipid/MC3 AUC: Table 3I, hEPO; for Fold increase in hEPO concentration relative to MC3: mice, 0.01 mpk, 6 hr time point; for Novel lipid/MC3 ratio, 6 hr. timepoint, i.m. hEPO: relative to MC3, Table 3G
# Experimental: The expression of hEPO and cytokine induction in mice intravenously administered a nanoparticle composition at a dose of 0.5 mpk were measured at 3, 6, and 24 hours. […] The expression of hEPO in mice intramuscularly administered a nanoparticle composition from Table 1B at a dose of 0.01 mpk were measured at 3, 6, and 24 hours.
# Blood collection and analysis for hEPO. Blood was collected from mice or rats via the tail vein and hEPO concentrations were determined using a hEPO ELISA assay.
# IP-10 = assay: Cytokine induction in rats after intravenous administration; type: in vivo, rat; conditions: for IP-10 induction: rat, 48 hours after administration; for IP-10: rats, 2.0 mpk, 6 hours, hEPO nanoparticle compositions
# Experimental: The expression of hEPO and cytokine induction in rats intravenously administered a nanoparticle composition at a dose of 2.0 mpk was measured at 6 h.
# Table 19A summarizes the hEPO expression, IP-10 induction, liver and spleen levels, and alanine aminotransferase (ALT) and aspartate aminotransferase (AST) measured upon intravenous administration of formulations including Compounds 48, 49, and 50 to rat at 0.2 and 2 mpk and hEPO mRNA. hEPO concentrations were measured 6 hours after administration, while cytokine induction and liver and spleen levels were measured 48 hours after administration. hEPO and IP-10 concentrations are presented in pg/ml, while liver levels are provided in ng/g. ALT and AST levels are presented in international units.
# hEPO mRNA [3] = assay: hEPO expression after subcutaneous administration to mice; type: in vivo, female CD-1 mice; conditions: for Novel lipid/MC3 expression ratio, 6 hr. time point, s.c. hEPO 0.5 mpk: relative to MC3
# Procedure, shortened: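 Lipid nanoparticle formulations carrying hEPO or luciferase mRNA were given subcutaneously at 0.5 mpk to female CD-1 mice. Whole-body luminescence imaging was done at 3, 6 and 24 h. Liver, spleen and injection-site expression were assessed ex vivo at 24 h.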
# luciferase mRNA = assay: Luciferase expression after subcutaneous administration to mice; type: in vivo, female CD-1 mice; conditions: for Lipid/MC3 AUC ratio: luciferase; for AUC (luciferase expression): whole body BLI; for Novel lipid/MC3 ratio, s.c. Luc 6 hr.: relative to MC3, Table 3G
# Procedure, shortened: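 Female CD-1 mice given luciferase mRNA in lipid nanoparticle formulations subcutaneously at 0.5 mpk. Expression read by whole-body bioluminescence imaging at 3, 6 and 24 h, with ex vivo liver, spleen and injection-site luminescence at 24 h.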
# [4] = lipid nanoparticle, ±SD within one assay run (Table 37)
Compound,pKa ([1]; Table 1A),Fold increase in total body Luc Flux relative to MC3 at 6 h (luciferase (Luc) mRNA; i.v. administration),"flux measured at 6 h relative to the MC3 formulation (luciferase (Luc) mRNA; i.v. administration, in words)","Novel lipid/MC3 expression ratio, 6 hr. time point, i.v. (luciferase (Luc) mRNA; intravenous)","Total Flux 3 hours (luciferase (Luc) mRNA; mice, i.v., 0.5 mg/kg)","Total Flux 6 hours (luciferase (Luc) mRNA; mice, i.v., 0.5 mg/kg)","Total Flux 24 hours (luciferase (Luc) mRNA; mice, i.v., 0.5 mg/kg)",Lipid/MC3 6 h timepoint (hEPO mRNA [2]),Lipid/MC3 AUC (hEPO mRNA [2]),IP-10 induction (IP-10; 0.2 mpk),IP-10 induction (IP-10; 2 mpk),"Novel lipid/MC3 expression ratio, 6 hr. time point, s.c. hEPO 0.5 mpk (hEPO mRNA [3])","Novel lipid/MC3 ratio, 6 hr. timepoint, i.v. (luciferase (Luc) mRNA; intravenous)",Fold increase in hEPO concentration relative to MC3 (hEPO mRNA [2]),"Novel lipid/MC3 ratio, 6 hr. timepoint, i.m. hEPO (hEPO mRNA [2])",IP-10 (IP-10),Lipid/MC3 AUC ratio (luciferase mRNA; 0.5 mpk),AUC (luciferase expression) (luciferase mRNA; 0.5 mpk),Lipid/MC3 Luc expression (luciferase (Luc) mRNA),"pKa [1, 4]",other results
"CCCCCCCCC(CC)OC(=O)CCCCCCCN(CCO)CCCCCCCC(=O)OC(CCCCCCCC)CCCCCCCC (stereo not shown) [Compound 49, heptadecan-9-yl 8-((2-hydroxyethyl)(8-oxo-8-(undecan-3-yloxy)octyl)amino)octanoate]",6.52,9.81,ten times higher,9.81,4.48E+10,1.08E+11,1.24E+09,11.0,9.9,66 pg/mL,932 pg/mL,8.01,,,,,,,,,
"CCCCCCCCCOC(=O)CCCCCCCN(CCO)CCCCCCCOC(=O)C(CCCCCCCC)CCCCCCCC [Compound 30, 7-((2-Hydroxyethyl)(8-(nonyloxy)-8-oxooctyl)amino)heptyl 2-octyldecanoate]",6.75,2.49,,2.49,1.19E+10,2.09E+10,1.21E+09,,,,,,2.49,9.2,9.2,214.5 pg/mL,6.38,1.0932E+11 (p/s) * h,,,"Apparent pKa ([1]; Table 3G): 6.75; Novel lipid/MC3 expression ratio, s.c. Luc 0.5 mpk (AUC) (luciferase mRNA; 0.5 mpk, relative to MC3): (AUC: 6.38); Novel lipid/MC3 ratio, s.c. Luc 6 hr. (luciferase mRNA): 6.53; factor by which MC3 is outperformed (luciferase mRNA; female CD-1 mice, 0.5 mpk): 6.5; hEPO expression Lipid/Compound 18 ratio, 6 hr. (hEPO mRNA [3]; 0.5 mpk, 6 hr.): 1.35; hEPO expression Lipid/MC3 ratio, 6 hr. (hEPO mRNA [3]; 0.5 mpk, 6 hr.): 6.53; hEPO expression Lipid/Compound 18 ratio, AUC (hEPO mRNA [3]; 0.5 mpk, AUC): 1.27; hEPO expression Lipid/MC3 ratio, AUC (hEPO mRNA [3]; 0.5 mpk, AUC): 6.38"
"CCCCCCCCC(C)OC(=O)CCCCCCCN(CCO)CCCCCCCC(=O)OC(CCCCCCCC)CCCCCCCC (stereo not shown) [Compound 48, decan-2-yl 8-((8-(heptadecan-9-yloxy)-8-oxooctyl)(2-hydroxyethyl)amino)octanoate]",6.68,10.0,ten times higher,,8.73E+10,1.10E+11,2.92E+09,8.2,7.5,134 pg/mL,970 pg/mL,8.09,,,,,,,10.0,,"total flux at 3 hours (luciferase (Luc) mRNA; mice, i.v., 0.5 mg/kg, comparison in words): highest"
"CCCCC/C=C\C/C=C\CCCCCCCCC(CCCCCCCC/C=C\C/C=C\CCCCC)OC(=O)CCCN(C)C [MC3, DLin-MC3-DMA, reference compound]",,1.00,,,1.58E+10,2.12E+10,7.19E+08,,,2 pg/mL,596 pg/mL,,,1,,688.3 pg/mL,1,1.7127E+10 (p/s) * h,1,6.30 ± 0.03,"Apparent pKa ([1]; Table 1B, formulated with hEPO mRNA): 6.35; 6 h Lipid/MC3 Avg. Luc Expression (luciferase (Luc) mRNA; Table 3C, i.v. administration): 1; Fold increase AUC Lipid/MC3 (luciferase (Luc) mRNA; Table 3C, i.v. administration): 1; AUC (h * p/s) (luciferase (Luc) mRNA; Table 3C, i.v. administration, Luc): 8.24E+10 h * p/s; Lipid/MC3 AUC (luciferase (Luc) mRNA; Table 3D, intravenous): 1; AUC (p/s * h) (luciferase (Luc) mRNA; Table 3D, intravenous, Luc): 1.909E+011 p/s * h; Average total flux (6 h, ffluc) (luciferase (Luc) mRNA; mice, intravenous): 6.59 × 10^9; Fold increase in average total flux relative to MC3 (luciferase (Luc) mRNA; mice, intravenous): 1"
"CCCCCCCCCOC(=O)CCCCCCCN(CCO)CCCCCCCC(=O)OC(CCCCCCCC)CCCCCCCC [Compound 18, Heptadecan-9-yl 8-((2-hydroxyethyl)(8-(nonyloxy)-8-oxooctyl)amino)octanoate]",6.56,3.22,,,1.71E+10,2.13E+10,2.51E+09,,,,,,,8.6,,517.3 pg/mL,,,,6.56 ± 0.13,"pKa ([1]; Table 6): 6.56; fold increase in Luc expression over MC3 formulations (luciferase (Luc) mRNA; intravenous administration, in words): highest fold increase; Fold increase in Luc expression relative to MC3, Intravenous (0.5 mpk dose) (luciferase (Luc) mRNA; intravenous, 0.5 mpk): 3.23; luciferase activity relative to MC3 LNP control (luciferase (Luc) mRNA; mice, intravenous): 3 fold; Average total flux (6 h, ffluc) (luciferase (Luc) mRNA; mice, intravenous): 2.13 × 10^10; Fold increase in average total flux relative to MC3 (luciferase (Luc) mRNA; mice, intravenous): 3.23; Novel lipid/MC3 expression ratio, 6 hr. time point, s.c. Luc 0.05 mpk (luciferase mRNA; 0.05 mpk, relative to MC3): 2.63; hEPO expression Lipid/MC3 ratio, 6 hr. (hEPO mRNA [3]; 0.5 mpk, 6 hr.): 2.63; hEPO expression Lipid/MC3 ratio, AUC (hEPO mRNA [3]; 0.5 mpk, AUC): 1.88"
"CCCCCCCCCCCOC(=O)CCCCCN(CCO)CCCCCCCC(=O)OC(CCCCCCCC)CCCCCCCC [Compound 25, Heptadecan-9-yl 8-((2-hydroxyethyl)(6-oxo-6-(undecyloxy)hexyl)amino)octanoate]",6.68,1.89,,1.89,2.27E+10,1.59E+10,9.77E+08,,,,,5.43,1.89,7.1,7.1,533.5 pg/mL,1.70,2.9156E+10 (p/s) * h,1.89,6.68 ± 0.29,"luciferase activity relative to MC3 LNP control (luciferase (Luc) mRNA; mice, intravenous): higher expression compared to MC3; Novel lipid/MC3 expression ratio, s.c. Luc 0.5 mpk (AUC) (luciferase mRNA; 0.5 mpk, relative to MC3): (AUC: 1.7); Novel lipid/MC3 ratio, s.c. Luc 6 hr. (luciferase mRNA): 1.73"
